We go through two compounds from EP0910563B1, “INTEGRIN RECEPTOR ANTAGONISTS” (SMITHKLINE BEECHAM CORPORATION, priority 1995, dated 1997).

As a reminder, the pKi is the negative decadic logarithm of the Ki, by convention in mol/L. High values mean a low Ki, low ones a high Ki.

pKi: −log10 of the molar value. A value given as a limit tells only on which side of the number the result lay.

One assay has as its target T1, αvβ3 (Homo sapiens, UniProt P05106+P06756).
T1 construct: Human placenta or human platelet αvβ3 (0.1-0.3 mg/mL) in buffer T; from tissue; host or cells: human placenta or human platelets
The assay is described as follows: Solid-phase [3H]-SK&F-107260 binding to αvβ3 (inhibition of vitronectin binding). The following applies: human placenta or platelet αvβ3 on ELISA plates, 5.0 nM [3H]-SK&F-107260. On the procedure: Solid-Phase [^3H]-SK&F-107260 Binding to αvβ3: Human placenta or human platelet αvβ3 (0.1-0.3 mg/mL) in buffer T (containing 2 mM CaCl2 and 1% octylglucoside) was diluted with buffer T containing 1 mM CaCl2, 1 mM MnCl2, 1 mM MgCl2 (buffer A) and 0.05% NaN3, and then immediately added to 96-well ELISA plates (Corning, New York, NY) at 0.1 mL per well. 0.1 - 0.2 µg of αvβ3 was added per well. The plates were incubated overnight at 4°C. At the time of the experiment, the wells were washed once with buffer A and were incubated with 0.1 mL of 3.5% bovine serum albumin in the same buffer for 1 hr at room temperature. Following incubation the wells were aspirated completely and washed twice with 0.2 mL buffer A. […]
The plates were incubated for 1 hr at room temperature. […] The receptors were solubilized with 0.1 mL of 1% SDS and the bound [^3H]-SK&F-107260 was determined by liquid scintillation counting with the addition of 3 mL Ready Safe in a Beckman LS Liquid Scintillation Counter, with 40% efficiency. Nonspecific binding of [^3H]-SK&F-107260 was determined in the presence of 2 µM SK&F-107260 and was consistently less than 1% of total radioligand input. […] The Ki (dissociation constant of the antagonist) was calculated according to the equation: Ki = IC50/(1 + L/Kd), where L and Kd were the concentration and the dissociation constant of [^3H]-SK&F-107260, respectively.

Assay [1] deals with T2, fibrinogen receptor (αIIbβ3) (Homo sapiens, UniProt P05106+P08514).
T2 construct: followed by the addition of 1 µg of the purified platelet αIIbβ3-containing liposomes; tissue Red Cross (platelets); host or cells: outdated, washed human platelets; lentil lectin sepharose purification
The assay can be described thus: Competitive binding of [3H]-SK&F-107260 to αIIbβ3 in liposomes. The settings on record: purified platelet αIIbβ3-containing liposomes, 4.5 nM [3H]-SK&F-107260. On the procedure: Ten units of outdated, washed human platelets (obtained from Red Cross) were lyzed by gentle stirring in 3% octylglucoside, 20 mM Tris-HCl, pH 7.4, 140 mM NaCl, 2 mM CaCl2 at 4°C for 2 h. The lysate was centrifuged at 100,000g for 1 h. The supernatant obtained was applied to a 5 mL lentil lectin sepharose 4B column (E.Y. Labs) preequilibrated with 20 mM Tris-HCl, pH 7.4, 100 mM NaCI, 2 mM CaCl2, 1% octylglucoside (buffer A). After 2 h incubation, the column was washed with 50 mL cold buffer A. The lectin-retained αIIbβ3 was eluted with buffer A containing 10% dextrose. All procedures were performed at 4°C. The αIIbβ3 obtained was >95% pure as shown by SDS polyacrylamide gel electrophoresis. […]
The binding to the fibrinogen receptor (αIIbβ3) was assayed by an indirect competitive binding method using [^3H]-SK&F-107260 as an RGD-type ligand. […] Bound radioactivity remaining on the filters was counted in 1.5 mL Ready Solve (Beckman Instruments, Fullerton, CA) in a Beckman Liquid Scintillation Counter (Model LS6800), with 40% efficiency. Nonspecific binding was determined in the presence of 2 µM unlabeled SK&F-107260 and was consistently less than 0.14% of the total radioactivity added to the samples. […]
Competition binding data were analyzed by a nonlinear least-squares curve fitting procedure. […]

T2 sequence (P08514 32-887 limits assumed): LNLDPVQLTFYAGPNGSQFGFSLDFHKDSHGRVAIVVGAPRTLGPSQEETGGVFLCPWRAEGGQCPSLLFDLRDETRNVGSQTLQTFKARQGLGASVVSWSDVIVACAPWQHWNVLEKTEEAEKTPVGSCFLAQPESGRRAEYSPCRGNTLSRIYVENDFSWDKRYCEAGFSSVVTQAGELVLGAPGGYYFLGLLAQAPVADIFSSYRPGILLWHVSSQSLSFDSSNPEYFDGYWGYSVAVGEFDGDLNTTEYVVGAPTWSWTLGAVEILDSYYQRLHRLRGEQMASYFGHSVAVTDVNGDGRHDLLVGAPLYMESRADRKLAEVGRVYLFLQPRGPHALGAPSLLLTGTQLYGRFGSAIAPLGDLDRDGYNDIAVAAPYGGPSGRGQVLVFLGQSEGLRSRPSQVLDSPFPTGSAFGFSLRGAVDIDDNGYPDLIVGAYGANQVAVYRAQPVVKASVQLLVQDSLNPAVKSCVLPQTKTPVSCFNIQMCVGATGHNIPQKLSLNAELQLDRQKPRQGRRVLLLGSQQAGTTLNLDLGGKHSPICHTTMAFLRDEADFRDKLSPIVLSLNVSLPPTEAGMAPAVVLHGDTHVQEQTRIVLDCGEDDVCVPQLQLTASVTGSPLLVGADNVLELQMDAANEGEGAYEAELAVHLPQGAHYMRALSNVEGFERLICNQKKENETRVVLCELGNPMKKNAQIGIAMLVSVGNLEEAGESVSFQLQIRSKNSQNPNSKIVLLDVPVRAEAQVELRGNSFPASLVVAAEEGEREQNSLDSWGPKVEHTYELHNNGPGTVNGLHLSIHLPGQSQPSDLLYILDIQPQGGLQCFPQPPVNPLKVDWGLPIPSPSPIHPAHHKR
T2 sequence (P08514 891-1039 partner limits assumed): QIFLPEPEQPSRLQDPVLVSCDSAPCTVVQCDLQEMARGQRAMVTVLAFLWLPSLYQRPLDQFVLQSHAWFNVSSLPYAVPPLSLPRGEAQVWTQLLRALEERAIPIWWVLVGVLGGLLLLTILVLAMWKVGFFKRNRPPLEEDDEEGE
T2 sequence (P05106 27-788): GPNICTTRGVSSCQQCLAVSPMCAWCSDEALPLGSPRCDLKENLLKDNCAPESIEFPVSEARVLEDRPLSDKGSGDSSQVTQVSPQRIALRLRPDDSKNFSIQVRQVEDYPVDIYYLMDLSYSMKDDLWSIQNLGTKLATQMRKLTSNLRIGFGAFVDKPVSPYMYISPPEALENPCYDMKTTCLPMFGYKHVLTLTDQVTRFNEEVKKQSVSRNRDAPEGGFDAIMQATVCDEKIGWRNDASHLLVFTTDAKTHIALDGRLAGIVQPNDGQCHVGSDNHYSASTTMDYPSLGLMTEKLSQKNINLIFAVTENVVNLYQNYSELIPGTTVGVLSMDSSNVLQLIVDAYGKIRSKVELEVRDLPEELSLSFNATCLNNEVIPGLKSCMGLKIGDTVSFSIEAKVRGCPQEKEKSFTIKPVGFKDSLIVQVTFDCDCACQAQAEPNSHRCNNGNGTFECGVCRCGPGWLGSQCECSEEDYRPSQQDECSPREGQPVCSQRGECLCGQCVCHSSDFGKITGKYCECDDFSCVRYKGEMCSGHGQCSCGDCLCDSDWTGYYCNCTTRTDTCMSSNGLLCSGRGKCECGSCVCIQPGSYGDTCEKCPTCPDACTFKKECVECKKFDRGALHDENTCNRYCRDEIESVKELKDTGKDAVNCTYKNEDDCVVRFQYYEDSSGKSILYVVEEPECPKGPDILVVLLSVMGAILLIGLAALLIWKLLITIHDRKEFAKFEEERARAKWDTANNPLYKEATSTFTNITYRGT
T1 sequence (P06756 31-889 limits assumed): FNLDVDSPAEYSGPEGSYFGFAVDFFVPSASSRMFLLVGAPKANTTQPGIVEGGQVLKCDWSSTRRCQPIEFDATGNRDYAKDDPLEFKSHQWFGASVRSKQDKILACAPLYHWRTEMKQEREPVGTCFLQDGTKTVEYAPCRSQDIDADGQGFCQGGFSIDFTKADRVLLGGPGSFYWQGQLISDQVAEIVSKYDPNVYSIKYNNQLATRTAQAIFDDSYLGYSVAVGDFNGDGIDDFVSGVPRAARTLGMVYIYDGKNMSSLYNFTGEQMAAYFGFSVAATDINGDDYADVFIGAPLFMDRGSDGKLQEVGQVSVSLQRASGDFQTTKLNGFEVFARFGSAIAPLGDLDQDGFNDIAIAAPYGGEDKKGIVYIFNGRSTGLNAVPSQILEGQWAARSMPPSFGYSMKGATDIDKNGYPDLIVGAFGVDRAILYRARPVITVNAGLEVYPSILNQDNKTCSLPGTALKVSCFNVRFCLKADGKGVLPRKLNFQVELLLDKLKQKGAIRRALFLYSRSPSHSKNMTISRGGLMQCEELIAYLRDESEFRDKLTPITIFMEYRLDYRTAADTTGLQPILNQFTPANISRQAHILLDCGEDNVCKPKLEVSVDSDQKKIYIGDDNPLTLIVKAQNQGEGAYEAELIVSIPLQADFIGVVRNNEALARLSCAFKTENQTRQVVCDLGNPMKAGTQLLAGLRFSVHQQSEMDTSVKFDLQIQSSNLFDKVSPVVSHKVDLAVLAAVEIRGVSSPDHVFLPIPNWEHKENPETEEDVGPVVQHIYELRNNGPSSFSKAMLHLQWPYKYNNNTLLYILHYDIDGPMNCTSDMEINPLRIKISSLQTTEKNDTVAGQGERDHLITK
T1 sequence (P06756 891-1048 partner limits assumed): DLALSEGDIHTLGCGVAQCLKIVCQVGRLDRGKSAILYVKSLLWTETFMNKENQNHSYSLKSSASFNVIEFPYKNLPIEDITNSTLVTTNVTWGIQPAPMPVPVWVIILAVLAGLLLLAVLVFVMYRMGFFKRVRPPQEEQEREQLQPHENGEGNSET
T1 sequence (P05106 27-788): as the sequence (P05106 27-788) above

On to `CN(Cc1nc2ccccc2[nH]1)C(=O)c1ccc2c(c1)Cc1ccccc1C(CC(=O)O)C2` (racemic) [Example 1, (±)-10,11-dihydro-3-[[[(1H-benzimidazol-2-yl)methyl]methylamino]carbonyl]-5H-dibenzo[a,d]cycloheptene-10-acetic acid], for which the pKi on αvβ3 is 7.64; in assay [1], less than 4.30.
The like results for `O=C(O)CC1Cc2ccc(C(=O)N3CCC(C4CCNCC4)CC3)cc2Cc2ccccc21` (racemic) [Example 2, (±)-10,11-dihydro-3-[1-(4,4'-bipiperidinyl)carbonyl]-5H-dibenzo[a,d]cycloheptene-10-acetic acid] were, in that order, 4.82 and 8.05.
